According to patent US8993631B2, “Method of treating contrast-induced nephropathy” (Novartis AG, priority 2010, dated 2015):
Counter-ions that a name gives are not always drawn. Where no end group is shown, it is not given here.

Experiments:
[1] = test system: adult male cannulated Sprague-Dawley rats; experiment: Renal function assessment in rats: GFR by FITC-inulin clearance method; conditions: relative to vehicle-treated rats
Description: A fluorescein isothiocyanate (FITC)-inulin stock solution was prepared by weighing the FITC-inulin powder, adding it to saline (50 mg/ml), and heating it in boiling water until dissolved. The solution was filtered and dialyzed overnight to remove unbound FITC. The next day, the dialysate was again filtered to sterilize it.
Approximately 1-2 weeks before the study, femoral arterial and venous catheters were implanted in the rats under isoflurane anesthesia. The catheters were exteriorized through a spring tether/swivel system and the instrumented rats were housed in specialized cages.
On the experimental day, rats were administered a NEP inhibitor or its vehicle by oral gavage. Thirty min later, FITC-inulin (10 mg/kg i.v. bolus) was administered via the venous catheter. Blood samples were withdrawn from the arterial catheter at 3, 7, 10, 15, 30, 60, 90, and 120 min after the FITC-inulin injection for plasma FITC-inulin and compound concentrations.
Arterial pressure was continuously monitored throughout the experiment.
The stock solution of FITC-inulin was serially diluted to generate a standard curve. The dosing solution was also diluted and analyzed to determine the exact amount of FITC-inulin injected. […] Concentrations of FITC-inulin in the plasma and dosing solution were determined by linear regression from the standard curve. FITC-inulin AUC(O-infinity) was derived by WinNonlin for each rat's plasma concentration-time curves. GFR (FITC-inulin clearance) was calculated for each animal as the injected dose divided by the AUC.

[2] = target: recombinant human neutral endopeptidase (NEP, EC 3.4.24.11) (Homo sapiens (Human), UniProt P08473); experiment: In vitro inhibition of recombinant human neutral endopeptidase (fluorescence lifetime assay); assay type: biochemical; conditions: 1 hour pre-incubation, effect determined after 1 hour at room temperature, pH 7.4
From the text: The activity of a compound for use in the method according to the present invention can be assessed by the following in vitro & in vivo methods and/or by the following in vitro & in vivo methods well-described in the art. See A fluorescence lifetime-based assay for protease inhibitor profiling on human kallikrein 7 Doering K, Meder G, Hinnenberger M, Woelcke J, Mayr L M, Hassiepen U Biomol Screen.
In particular, the in vitro inhibition of recombinant human neutral endopeptidase (NEP, EC 3.4.24.11) can be determined as follows: […]

[3] = test system: patients with chronic renal insufficiency undergoing cardiac catheterization; conditions: 48 hour infusion at 0.042 μg/kg/min, at-risk patients undergoing cardiac catheterization; cited from earlier work

Sequence of recombinant human neutral endopeptidase (NEP, EC 3.4.24.11) (P08473 whole entry): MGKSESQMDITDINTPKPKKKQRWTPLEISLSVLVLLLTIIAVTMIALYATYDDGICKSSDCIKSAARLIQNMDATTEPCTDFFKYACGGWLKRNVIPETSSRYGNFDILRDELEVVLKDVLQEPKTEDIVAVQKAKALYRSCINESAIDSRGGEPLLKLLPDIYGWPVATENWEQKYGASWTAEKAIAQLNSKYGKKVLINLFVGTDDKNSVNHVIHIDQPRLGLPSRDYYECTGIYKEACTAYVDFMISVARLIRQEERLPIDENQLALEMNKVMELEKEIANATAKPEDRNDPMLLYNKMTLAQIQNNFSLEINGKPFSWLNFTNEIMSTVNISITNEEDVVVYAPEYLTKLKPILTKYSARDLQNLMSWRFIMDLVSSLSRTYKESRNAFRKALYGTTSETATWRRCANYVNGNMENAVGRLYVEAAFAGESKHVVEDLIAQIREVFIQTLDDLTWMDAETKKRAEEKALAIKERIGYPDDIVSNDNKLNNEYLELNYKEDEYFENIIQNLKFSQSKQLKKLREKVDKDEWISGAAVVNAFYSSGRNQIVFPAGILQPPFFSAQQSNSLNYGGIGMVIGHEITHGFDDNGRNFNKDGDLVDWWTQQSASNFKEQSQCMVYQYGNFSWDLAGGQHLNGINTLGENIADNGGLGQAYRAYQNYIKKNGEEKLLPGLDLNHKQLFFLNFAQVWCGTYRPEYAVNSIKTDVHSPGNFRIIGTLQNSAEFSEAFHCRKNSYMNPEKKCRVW

Row | Compound | IC50 [2] [nM] | % GFR increase ([1]; dose 1 mg/kg p.o.) [%] | further results
1 | CCOC(=O)C[C@@H](Cc1ccc(-c2cccc(Cl)c2)cc1)NC(=O)CCC(=O)O [Example 1-2, (R)-4-(1-(3′-chlorobiphenyl-4-yl)-4-ethoxy-4-oxobutan-2-ylamino)-4-oxobutanoic acid] |  |  | % GFR increase ([1]; dose 0.1 mg/kg p.o.): 23%
2 | CCOC(=O)C[C@@H](Cc1ccc(-c2ccccc2)cc1)NC(=O)CN1CCC[C@H]1C(=O)OCc1ccccc1 [Example 3-11, (S)-benzyl 1-(2-((R)-1-(biphenyl-4-yl)-4-ethoxy-4-oxobutan-2-ylamino)-2-oxoethyl)pyrrolidine-2-carboxylate trifluoroacetic acid salt] | 18 |  | 
3 | CCCCOC(=O)CCC(=O)N[C@@H](CC(=O)O)Cc1ccc(-c2cccc(Cl)c2)cc1 [Example 3-12, (R)-3-(4-butoxy-4-oxobutanamido)-4-(3′-chlorobiphenyl-4-yl)butanoic acid] | 15 | 32 | 
4 | CCc1ncc(C(=O)N[C@@H](CC(=O)O)Cc2ccc(-c3cc(Cl)ccc3F)cc2)o1 [Example 9-7] |  | 35 | 
5 | CCOC(=O)[C@H](C)N[C@@H](Cc1ccc(-c2cccc(Cl)c2)cc1)C(=O)Nc1nnn[nH]1 [Example 31, (S)-2-[(S)-2-(3′-chloro-biphenyl-4-yl)-1-(1H-tetrazol-5-ylcarbamoyl)-ethylamino]-propionic acid ethyl ester] |  |  | % GFR increase ([1]; dose 0.1 mg/kg p.o.): 27%
6 | C[C@H](N[C@@H](Cc1ccc(-c2cccc(Cl)c2)cc1)C(=O)Nc1cc(O)no1)C(=O)O [Example 32-4, (S)-2-[(S)-2-(3′-Chloro-biphenyl-4-yl)-1-(3-hydroxy-isoxazol-5-ylcarbamoyl)-ethylamino]-propionic acid] | 2.4 |  | 
7 | CCOC(=O)[C@H](C)C[C@@H](Cc1ccc(-c2ccccc2)cc1)NC(=O)CCC(=O)O [Example 34, (2R,4S)-5-Biphenyl-4-yl-4-(3-carboxy-propionylamino)-2-methyl-pentanoic acid ethyl ester] |  |  | % GFR increase ([1]; dose 100 mg/kg p.o.): 37%
8 | CCOC(=O)[C@H](C)C[C@@H](Cc1ccc(-c2cccc(Cl)c2)cc1)NC(=O)CCC(=O)O [Example 35, (2R,4S)-4-(3-carboxy-propionylamino)-5-(3′-chloro-biphenyl-4-yl)-2-methyl-pentanoic acid ethyl ester] |  | 22 | 
9 | Human Endogenous atrial natriuretic peptides (SLRRSSCFGGRMDRIGAQSGLGCNSFRY; ends and bridges not checked; cysteine pairing not given here; UniProt P01160 124-151, looked up) [Human ANP, "Human Endogenous atrial natriuretic peptides (ANP) infusions have been available in Japan for use in acute decompensated heart failure"; infused at 0.042 μg/kg/min] |  |  | reduction of the incidence of contrast-induced nephropathy [3]: 70%
